For one assay, the target named is CDK6/Cyclin D1 (Homo sapiens (Human), UniProt Q00534). The assay can be described thus: CDK6/CyclinD1 enzymatic activity assay (TR-FRET). The format is biochemical. The settings on record: ATP 250 μM, read-out: CDK6_D1 IC50. How it is done: CDK6/CyclinD1 Enzymatic Activity Assay
The inhibitory activity of compounds was evaluated in vitro using TR-FRET assay with white 384-well low volume microplate (Greiner Bio-One). CDK6/Cyclin D1 catalyzed phosphorylation of peptide in the presence and absence of compounds was measured and used in IC50 determination. Recombinant protein complex CDK6/Cyclin D1, expressed from insect cell, was purchased from ProQinase. Testing compounds were dissolved in DMSO at 0.1 mM and tested in 9-dose IC50 mode. The reaction mixture was prepared by mixing CDK6/Cyclin D1 (1 nM final), ULight-4E-BP1 (100 nM final, Perkinelmer, TRF0128-D), and ATP (250 μM final) in assay buffer (20 mM of HEPES pH 7.4, 1 mM of EGTA, 0.05% BSA, 0.005% Tween 20, and 1 mM TCEP). The compound of interest in DMSO was added to each well in 3-fold serial dilution by dispenser (TECAN D300E). After 20 minutes preincubation at room temperature, 0.1 μL MgCl2 (10 mM final) was added to initiate the reaction. Following a 60 minutes incubation at 37° C., the reaction was stopped by addition of 2 μL of quenching buffer consisting of Lance detection buffer (Perkinelmer CR97-100C), 2 nM LANCE Ultra Europium-anti-P-4E-BP1 (Perkinelmer, TRF0216-D), 10 mM EDTA, and incubate at room temperature for additional 60 minutes in dark. The reaction signal was measured by Envision multimode plate reader (PerkinElmer, 2102-0010). IC50 values were determined by fitting the data to the standard 4 parameters with Hill Slope using GraphPad Prism software.

Assay [1] has as its system MCF7 adenocarcinoma cell line. The assay can be described thus: Cell proliferation studies in MCF7 cells (ATP-Lite, 10 days). The format is cell-based. Conditions: read-out: PROLIFERATION_CTG_MCF7 IC50. On the procedure:
Cell Proliferation Studies in MCF7 Cells
Cell proliferation studies were conducted in MCF7 adenocarcinoma cell line. Cells were maintained in DMEM (Coming, Catalog #: 10-013-CV) supplemented with 10% v/v FBS (Gibco, Catalog #: 26140-079), 1% v/v Penicillin Streptomycin (Gibco, Catalog #15140-122) Cells were seeded in 384-well plates at a density of 100 or 200 cells/well. Compounds dissolved in DMSO were plated in quadruplicate using a digital dispenser (D300E, Tecan) and tested on a 9-point 3-fold serial dilution. Cells were incubated for 10 days in a 37° C. active humidified incubator at 5% CO2. A media exchange and second compound addition were performed on day 5. Cell viability was measured using the ATP-Lite 1-Step Luminescence reagent (Perkin Elmer, Catalog #: 6016731) as per manufacturer's instructions. Luminescence signal was measured with a multimode plate reader (Envision 2105, Perkin Elmer). Raw data files were imported to Dotmatics Screening Ultra for IC50 analysis. Luminescence values were normalized to both background and DMSO controls to obtain a percentage of viable cells relative to DMSO vehicle control.

Another assay addresses CDK4/Cyclin D1 (Homo sapiens (Human), UniProt P11802). The assay can be described thus: CDK4/CyclinD1 enzymatic activity assay (TR-FRET). The format is biochemical. Conditions: ATP 2 mM, read-out: CDK4_D1 IC50. In short, it runs like this: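 Insect-cell CDK4/Cyclin D1 (1 nM) with ULight-4E-BP1 (100 nM) and 2 mM ATP in HEPES pH 7.4 buffer, preincubated 20 min with compound (9-dose, 3-fold dilutions); 10 mM MgCl2 started the reaction, run 60 min at 37 °C. EDTA/Eu-anti-phospho-4E-BP1 TR-FRET detection; IC50 from 4-parameter Hill fit.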
In general terms: In TR-FRET formats the signal depends on donor and acceptor labels being close together.

Read-outs that look alike come from different tables or passages of the source.

CDK6/Cyclin D1, sequence (Q00534 whole entry): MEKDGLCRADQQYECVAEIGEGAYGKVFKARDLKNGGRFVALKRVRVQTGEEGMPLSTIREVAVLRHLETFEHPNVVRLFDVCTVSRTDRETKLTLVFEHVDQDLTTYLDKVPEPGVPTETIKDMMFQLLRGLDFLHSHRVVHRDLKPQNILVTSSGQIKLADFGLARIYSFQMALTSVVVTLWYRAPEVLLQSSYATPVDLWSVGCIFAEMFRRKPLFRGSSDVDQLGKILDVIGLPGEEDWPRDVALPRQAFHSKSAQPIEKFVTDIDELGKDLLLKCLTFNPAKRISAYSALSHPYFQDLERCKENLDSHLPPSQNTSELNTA
CDK6/Cyclin D1, sequence (P24385 whole entry partner): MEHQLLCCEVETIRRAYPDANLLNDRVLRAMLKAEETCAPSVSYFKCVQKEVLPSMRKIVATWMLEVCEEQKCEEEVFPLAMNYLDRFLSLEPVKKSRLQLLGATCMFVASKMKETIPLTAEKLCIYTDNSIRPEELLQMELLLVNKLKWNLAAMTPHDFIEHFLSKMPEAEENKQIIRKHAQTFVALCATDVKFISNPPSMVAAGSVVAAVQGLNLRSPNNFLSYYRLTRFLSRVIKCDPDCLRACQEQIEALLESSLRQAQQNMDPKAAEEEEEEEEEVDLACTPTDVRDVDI
CDK4/Cyclin D1, sequence (P11802 whole entry): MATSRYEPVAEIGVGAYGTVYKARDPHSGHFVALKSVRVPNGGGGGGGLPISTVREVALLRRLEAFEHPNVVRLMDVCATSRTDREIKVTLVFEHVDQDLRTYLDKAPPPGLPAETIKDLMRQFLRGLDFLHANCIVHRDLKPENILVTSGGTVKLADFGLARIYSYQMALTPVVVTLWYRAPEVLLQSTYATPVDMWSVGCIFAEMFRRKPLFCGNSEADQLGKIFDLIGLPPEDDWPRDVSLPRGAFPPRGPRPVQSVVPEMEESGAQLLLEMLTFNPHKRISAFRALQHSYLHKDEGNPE
CDK4/Cyclin D1, sequence (P24385 whole entry partner): as the sequence (P24385 whole entry partner) above

Take “4-(2,6-Dimethyl-3-propan-2-ylthieno[2,3-d]imidazol-5-yl)-N-[5-(4-ethyl-6,6-difluoro-1,4-diazepan-1-yl)pyridin-2-yl]-5-fluoropyrimidin-2-amine [Example 68]”: the values for the IC50 (at CDK6/Cyclin D1; in assay [1]) were not above 0.02 µM and 0.02 to 0.2 µM, respectively.

In the case of `Cc1c(-c2nc(Nc3ccc(C4CCCN(C)C4)cn3)ncc2F)sc2c1ncn2C(C)C` (single isomer, unassigned) [Example 126, 5-Fluoro-N-[5-[-1-methylpiperidin-3-yl]pyridin-2-yl]-4-(6-methyl-3-propan-2-ylthieno[2,3-d]imidazol-5-yl)pyrimidin-2-amine], the IC50 was not above 0.02 µM at CDK4/Cyclin D1, not above 0.02 µM at CDK6/Cyclin D1 and 0.02 to 0.2 µM in assay [1].

With `CCN1CCN(c2ccc(Nc3ncc(F)c(-c4cc5nccc(C(C)(C)O)c5s4)n3)nc2)CC1` [Example 17, 2-[2-[2-[[5-(4-Ethylpiperazin-1-yl)pyridin-2-yl]amino]-5-fluoropyrimidin-4-yl]thieno[3,2-b]pyridin-7-yl]propan-2-ol], the IC50 on CDK4/Cyclin D1 is not above 0.02 µM; on CDK6/Cyclin D1, 0.02 to 0.2 µM; in assay [1] (Homo sapiens, 240 h) it was 0.02 to 0.2 µM.

Regarding `CCN1CCN(Cc2ccc(Nc3ncc(F)c(-c4sc5c(C6CCCC6)ccnc5c4Cl)n3)nc2)CC1` [Example 30, 4-(3-Chloro-7-cyclopentylthieno[3,2-b]pyridin-2-yl)-N-[5-[(4-ethylpiperazin-1-yl)methyl]pyridin-2-yl]-5-fluoropyrimidin-2-amine], the IC50 on CDK4/Cyclin D1 was not above 0.02 µM; at CDK6/Cyclin D1, 0.02 to 0.2 µM; in assay [1] (Homo sapiens, 240 h), 0.02 to 0.2 µM.

`CCN1CC2(C1)CN(c1ccc(Nc3ncc(F)c(-c4sc5c(nc(C)n5C(C)C)c4C)n3)nn1)C2` [Example 53, 6-(6-Ethyl-2,6-diazaspiro[3.3]heptan-2-yl)-N-(5-fluoro-4-(3-isopropyl-2,6-dimethyl-3H-thieno[2,3-d]imidazol-5-yl)pyrimidin-2-yl)pyridazin-3-amine]: the IC50 was not above 0.02 µM at CDK4/Cyclin D1; not above 0.02 µM at CDK6/Cyclin D1; 0.02 to 0.2 µM in assay [1] (Homo sapiens, 240 h).

Regarding `CCN1C2CC1CN(c1ccc(Nc3ncc(F)c(-c4cc5c(=O)n(C)cc(C(C)C)c5s4)n3)nc1)C2` [Example 58, 2-(2-((5-(6-Ethyl-3,6-diazabicyclo[3.1.1]heptan-3-yl)pyridin-2-yl)amino)-5-fluoropyrimidin-4-yl)-7-isopropyl-5-methylthieno[3,2-c]pyridin-4(5H)-one], the IC50 was not above 0.02 µM at CDK4/Cyclin D1; 0.02 to 0.2 µM on CDK6/Cyclin D1; 0.02 to 0.2 µM in assay [1] (Homo sapiens, 240 h).

On to `CCN1CCN(C(=O)c2ccc(Nc3ncc(F)c(-c4cc5c(=O)n(C)cc(C(C)C)c5s4)n3)nc2)CC1` [Example 59, 2-(2-((5-(4-Ethylpiperazine-1-carbonyl)pyridin-2-yl)amino)-5-fluoropyrimidin-4-yl)-7-isopropyl-5-methylthieno[3,2-c]pyridin-4(5H)-one], for which the IC50 was not above 0.02 µM at CDK4/Cyclin D1; 0.02 to 0.2 µM on CDK6/Cyclin D1; 0.02 to 0.2 µM in assay [1] (Homo sapiens, 240 h).

As for `CCN1CC2(C1)CN(c1ccc(Nc3ncc(F)c(-c4sc5c(c4C)c(=O)ncn5C(C)C)n3)nc1)C2` [Example 62, 6-(2-((5-(6-Ethyl-2,6-diazaspiro[3.3]heptan-2-yl)pyridin-2-yl)amino)-5-fluoropyrimidin-4-yl)-1-isopropyl-5-methylthieno[2,3-d]pyrimidin-4(1H)-one], the IC50 was not above 0.02 µM at CDK4/Cyclin D1; not above 0.02 µM at CDK6/Cyclin D1; 0.02 to 0.2 µM in assay [1] (Homo sapiens, 240 h).

Regarding `Cc1c(-c2nc(Nc3ccccn3)ncc2F)sc2c1nc(C)n2C(C)C` [Example 66, 4-(2,6-Dimethyl-3-propan-2-ylthieno[2,3-d]imidazol-5-yl)-5-fluoro-N-pyridin-2-ylpyrimidin-2-amine], the IC50 at CDK4/Cyclin D1 and on CDK6/Cyclin D1 was 0.02 to 0.2 µM in each case.

Consider `Cc1c(-c2nc(Nc3ccc(N4CC5(CCN5C)C4)cn3)ncc2F)sc2c1nc(C)n2C(C)C` [Example 67, 4-(2,6-Dimethyl-3-propan-2-ylthieno[2,3-d]imidazol-5-yl)-5-fluoro-N-[5-(1-methyl-1,6-diazaspiro[3.3]heptan-6-yl)pyridin-2-yl]pyrimidin-2-amine], for which the IC50 at CDK4/Cyclin D1 is not above 0.02 µM; on CDK6/Cyclin D1 it was not above 0.02 µM; in assay [1] (Homo sapiens, 240 h), 0.02 to 0.2 µM.

For the compound `CCN1CC2(C1)CN(C(=O)c1ccc(Nc3ncc(F)c(-c4cc5nc(C)n(C(C)C)c5s4)n3)nc1)C2` [Example 71, (6-Dthyl-2,6-diazaspiro[3.3]heptan-2-yl)-[6-[[5-fluoro-4-(2-methyl-3-propan-2-ylthieno[2,3-d]imidazol-5-yl)pyrimidin-2-yl]amino]pyridin-3-yl]methanone], the IC50 at CDK4/Cyclin D1 was not above 0.02 µM; on CDK6/Cyclin D1, 0.02 to 0.2 µM; in assay [1], 0.02 to 0.2 µM.

Turning to `Cc1nc2cc(-c3nc(Nc4ccc(N5CC(N(C)C)C5)cn4)ncc3F)sc2n1C(C)C` [Example 72, N-[5-[3-(Dimethylamino)azetidin-1-yl]pyridin-2-yl]-5-fluoro-4-(2-methyl-3-propan-2-ylthieno[2,3-d]imidazol-5-yl)pyrimidin-2-amine], the IC50 is not above 0.02 µM at CDK4/Cyclin D1; not above 0.02 µM at CDK6/Cyclin D1; 0.02 to 0.2 µM in assay [1] (Homo sapiens, 240 h).

Regarding `Cc1c(-c2nc(Nc3ccc(N4CCN(C)CC4=O)cn3)ncc2F)sc2c1nc(C)n2C(C)C` [Example 75, 1-[6-[[4-(2,6-Dimethyl-3-propan-2-ylthieno[2,3-d]imidazol-5-yl)-5-fluoropyrimidin-2-yl]amino]pyridin-3-yl]-4-methylpiperazin-2-one], the IC50 at CDK4/Cyclin D1 was not above 0.02 µM; at CDK6/Cyclin D1 it was not above 0.02 µM; in assay [1] (Homo sapiens, 240 h), not above 0.02 µM.

Consider `Cc1c(-c2nc(Nc3ccc(N4CCN(CC(F)(F)F)CC4)cn3)ncc2F)sc2c(C(C)C)cn(C)c(=O)c12` [Example 80, 2-(5-Fluoro-2-((5-(4-(2,2,2-trifluoroethyl)piperazin-1-yl)pyridin-2-yl)amino)pyrimidin-4-yl)-7-isopropyl-3,5-dimethylthieno[3,2-c]pyridin-4(5H)-one], for which the IC50 was in the range of 0.02 to 0.2 µM on CDK4/Cyclin D1; 0.02 to 0.2 µM on CDK6/Cyclin D1; 0.2 to 2 µM in assay [1] (Homo sapiens, 240 h).

Consider `CCN1CC2CC1CN2c1ccc(Nc2ncc(F)c(-c3cc4c(=O)n(C)cc(C(C)C)c4s3)n2)nc1` (stereo not drawn) [Example 81, 2-(2-((5-(5-Ethyl-2,5-diazabicyclo[2.2.1]heptan-2-yl)pyridin-2-yl)amino)-5-fluoropyrimidin-4-yl)-7-isopropyl-5-methylthieno[3,2-c]pyridin-4(5H)-one], for which the IC50 on CDK4/Cyclin D1 was not above 0.02 µM; on CDK6/Cyclin D1 it was not above 0.02 µM; in assay [1] (Homo sapiens, 240 h) it was 0.02 to 0.2 µM.

For `Cc1c(-c2nc(Nc3ccc(N4CC5(C4)CN(C(C)C)C5)cn3)ncc2F)sc2c(C(C)C)cn(C)c(=O)c12` [Example 92, 2-(5-Fluoro-2-((5-(6-isopropyl-2,6-diazaspiro[3.3]heptan-2-yl)pyridin-2-yl)amino)pyrimidin-4-yl)-7-isopropyl-3,5-dimethylthieno[3,2-c]pyridin-4(5H)-one], the IC50 on CDK4/Cyclin D1 is not above 0.02 µM; on CDK6/Cyclin D1, not above 0.02 µM; in assay [1] (Homo sapiens, 240 h) it was 0.02 to 0.2 µM.

For the compound `Cc1c(-c2nc(Nc3ccc(C4CCNCC4)cn3)ncc2F)sc2c(C(C)C)cn(C)c(=O)c12` [Example 94, 2-(5-Fluoro-2-((5-(piperidin-4-yl)pyridin-2-yl)amino)pyrimidin-4-yl)-7-isopropyl-3,5-dimethylthieno[3,2-c]pyridin-4(5H)-one], the IC50 is not above 0.02 µM at CDK4/Cyclin D1; not above 0.02 µM at CDK6/Cyclin D1; 0.02 to 0.2 µM in assay [1] (Homo sapiens, 240 h).

Consider `Cc1c(-c2nc(Nc3ccc(C4CN(C)CCO4)cn3)ncc2F)sc2c1nc(C)n2C(C)C` (stereo not drawn) [Example 115, 5-Fluoro-4-(3-isopropyl-2,6-dimethyl-3H-thieno[2,3-d]imidazol-5-yl)-N-(5-(4-methylmorpholin-2-yl)pyridin-2-yl)pyrimidin-2-amine], for which the IC50 is not above 0.02 µM at CDK4/Cyclin D1 and 0.02 to 0.2 µM in assay [1].

Values taken from US11685744B2, “CDK inhibitors and their use as pharmaceuticals” (Prelude Therapeutics, Incorporated, priority 2020, dated 2023).
